According to US5264586A, “Analogs of calicheamicin gamma1I, method of making and using the same” (priority 1992, dated 1993):
pIC50: −log10 of the molar value.

Columns and labels:
UCLA-P3 (lung carcinoma) = assay: Sulforhodamine B cytotoxicity assay, UCLA-P3; assay type: cell-based; details: SRB
Description: (§1) Sulfurodamine B Cytotoxicity Assay
(§2) Cytotoxicity assays using (-)-calicheamicinone were carried out as follows:
(§3) 1. Preparation of target cells in 96-well plates
(§4) g. Adjust volume of cell suspension with T.C. media to give a density of 1×10^5 cells/mL.
(§5) j. Incubate plates for 24 hours at 37° C., 5-10 percent CO2 in a humidified incubator.
(§6) a. Stock drug solutions were prepared by dissolving drug in the appropriate solvent (determined during chemical characterization studies) and sterile filtering the drug-solvent solution through a sterile 0.2 μ filter unit. An aliquot was taken from each filtered drug solution and the O.D. was measured to determine the drug concentration.
(§7) b. Dilute the stock drug solution prepared above with T.C. medium to the desired initial concentration (10^-2 -10^-4 M). A minimum volume of 220 μL of diluted drug is required per 96-well plate used in the assay.
(§8) b. Add 100 μL of the initial compound dilution to adjacent duplicate wells in Columns #2. (Four materials can be tested in duplicate per 96-well plate.)
(§9) d. Transfer 10 μL to the appropriate wells in Column #4 and continue to make 1:10 dilutions of compound across the plate through Column #12.
f. […]
(§10) g. Read plates on a microtiter plate reader at […].
(§11) IC50 values; i.e., the concentration of Compound required to kill one-half of the treated cells, were then calculated. […]

[1] = tested on: ATCC Capan-1 (pancreatic carcinoma); assay: Sulforhodamine B cytotoxicity assay, Capan-1; assay type: cell-based; details: 72 hours, SRB
Description: as §1, §2, §3, §4, §5, §6, §7, §8, §9
f. […]
as §10, §11

[2] = tested on: ATCC SK-MEL-28 (Melanoma); assay: Sulforhodamine B cytotoxicity assay, SK-MEL-28; assay type: cell-based; details: 72 hours, SRB
Description: as §1, §2, §3, §4, §5, §6, §7, §8, §9
f. […]
as §10, §11

[3] = tested on: ATCC Molt-4 (T-cell leukemia); assay: Sulforhodamine B cytotoxicity assay, Molt-4; assay type: cell-based; details: 72 hours, SRB
Description: as §1, §2, §3, §4, §5, §6, §7, §8, §9
f. […]
as §10, §11

[4] = tested on: ATCC HL-60 (promyeocytic leukemia); assay: Sulforhodamine B cytotoxicity assay, HL-60; assay type: cell-based; details: 72 hours, SRB
Description: as §1, §2, §3, §4, §5, §6, §7, §8, §9
f. […]
as §10, §11

[5] = tested on: CHO (Chinese hampster ovary); assay: Sulforhodamine B cytotoxicity assay, CHO; assay type: cell-based; details: 72 hours, SRB
Description: as §1, §2, §3, §4, §5, §6, §7, §8, §9
f. […]
as §10, §11

[6] = tested on: ATCC HT-29 (Colon carcinoma); assay: Sulforhodamine B cytotoxicity assay, HT-29; assay type: cell-based; details: 72 hours, SRB
Description: as §1, §2, §3, §4, §5, §6, §7, §8, §9
f. […]
as §10, §11

[7] = tested on: ATCC P-388 (Mouse leukemia); assay: Sulforhodamine B cytotoxicity assay, P-388; assay type: cell-based; details: SRB
Description: as §1, §2, §3, §4, §5, §6, §7, §8, §9
f. […]
as §10, §11

[8] = tested on: ATCC MCF-7 (Breast carcinoma); assay: Sulforhodamine B cytotoxicity assay, MCF-7; assay type: cell-based; details: SRB
Description: as §1, §2, §3, §4, §5, §6, §7, §8, §9
f. […]
as §10, §11

[9] = tested on: ATCC Ovcar 3 (Ovarian carcinoma); assay: Sulforhodamine B cytotoxicity assay, Ovcar 3; assay type: cell-based; details: 72 hours, SRB
Description: as §1, §2, §3, §4, §5, §6, §7, §8, §9
f. […]
as §10, §11

[10] = tested on: NHDF (Normal human dermal fibroblast); assay: Sulforhodamine B cytotoxicity assay, NHDF; assay type: cell-based; details: 72 hours, SRB
Description: as §1, §2, §3, §4, §5, §6, §7, §8, §9
f. […]
as §10, §11

murine tumors = details: cited from earlier work
DNA = details: double stranded DNA; cited from earlier work
H-322 (lung carcinoma) = assay: Sulforhodamine B cytotoxicity assay, H-322; assay type: cell-based; details: NCI-H322, 72 hours, SRB
Description: as §1, §2, §3, §4, §5, §6, §7, §8, §9
f. […]
as §10, §11

## COC(=O)NC1=C2/C(=C\CSSSC)[C@](O)(C#C/C=C\C#C[C@@H]2O)CC1=O [(-)-calicheamicinone, (-)-Calicheamicinone]
UCLA-P3 (lung carcinoma); 72 hours
  pIC50: 4.60
[1]
  pIC50: 5.51
[2]
  pIC50: 4.60
[3]
  pIC50: 9.00
[4]
  pIC50: 6.70
[5]
  pIC50: 4.20
[6]
  pIC50: 4.55
[7]; 72 hours
  pIC50: 6.41
[8]; 72 hours
  pIC50: 4.89
[9]
  pIC50: 4.60
[10]
  pIC50: 4.89

## CCN[C@H]1CO[C@@H](O[C@H]2[C@H](O[C@H]3C#C/C=C\C#C[C@]4(O)CC(=O)C(NC(=O)OC)=C3/C4=C\CSSSC)O[C@H](C)[C@@H](NO[C@H]3C[C@H](O)[C@H](SC(=O)c4c(C)c(I)c(O[C@@H]5O[C@@H](C)[C@H](O)[C@@H](OC)[C@H]5O)c(OC)c4OC)[C@@H](C)O3)[C@@H]2O)C[C@@H]1OC [calicheamicin]
Murine tumors; murine tumors
  optimal dose against murine tumors: 0.5-1.5 microgram (μg) per kilogram (kg) of body weight
Murine tumors; vs adriamycin
  activity relative to adriamycin against murine tumors: about 1000 -fold more active
DNA
  DNA cleavage site / sequence specificity: 5' side of a TCCT sequence

## Neocarzinostatin
DNA
  DNA cleavage site / sequence specificity: sequence-specificity in its DNA cleavage

## COc1cccc2c1C(=O)c1c(O)c3c(c(O)c1C2=O)C[C@@](O)(C(C)=O)C[C@@H]3O[C@H]1C[C@H](N)[C@H](O)[C@H](C)O1 [Daunomycin, daunomycin]
UCLA-P3 (lung carcinoma); Homo sapiens, UCLA P-3, 72 hours
  pIC50: 5.80
[1]; Homo sapiens
  pIC50: 6.11
[2]; Homo sapiens
  pIC50: 5.80
H-322 (lung carcinoma)
  pIC50: 5.80
[3]; Homo sapiens
  pIC50: 10.00
[4]; Homo sapiens
  pIC50: 6.70
[5]
  pIC50: 5.80
[6]; Homo sapiens
  pIC50: 5.80
[7]; Mus musculus, P388, 72 hours
  pIC50: 6.70
[8]; Homo sapiens, MCF7, 72 hours
  pIC50: 6.41
[9]; Homo sapiens
  pIC50: 6.41
[10]; Homo sapiens
  pIC50: 6.41
